Literature values in patent publication US20250177320A1 (CinRx Pharma, LLC, priority 2017, published 2025).

Oc1cc(O)cc(O)c1 [Phloroglucinol, 1,3,5-benzenetriol]
bioavailability (absorption) (after an oral dose): 47%
plasma half-life (plasma): 1.5 h
peak blood concentration (single oral dose of 160 mg): 677 ng/mL
time to peak blood concentration (single oral dose of 160 mg): 20 min
